Data set [1] deals with L5178Y. In words: Cytotoxicity against mouse L5178Y cells assessed as cell growth inhibition. The data set is classed as functional, cell-based.
A short description of data set [2]: Cytotoxicity against human HeLa cells assessed as cell growth inhibition. The data set is classed as toxicity, cell-based. To be noted: read-out: ID50 (the source's name).
For data set [3], the system named is MCF7. The data set can be described thus: Cytotoxicity against human MCF7 cells assessed as cell growth inhibition. The data set is classed as functional, cell-based.
Data set [4] relates to HepG2. The data set can be described thus: Cytotoxicity against human HepG2 cells assessed as cell growth inhibition. The data set is classed as functional, cell-based.
The subject of data set [5] is NCI-H460. The data set can be described thus: Cytotoxicity against human NCI-H460 cells assessed as cell growth inhibition. The class given is functional, cell-based.
Data set [6] relates to SF-268. The data set can be described thus: Cytotoxicity against human SF-268 cells assessed as cell growth inhibition. The class given is functional, cell-based.
In data set [7] the test system is PC-3. In words: Cytotoxicity against human PC-3 cells assessed as cell growth inhibition. The data set is classed as functional, cell-based.
Data set [8] deals with Telomerase reverse transcriptase (Homo sapiens, UniProt O14746). The data set can be described thus: Inhibition of human telomerase.
Telomerase reverse transcriptase, sequence (O14746 whole entry): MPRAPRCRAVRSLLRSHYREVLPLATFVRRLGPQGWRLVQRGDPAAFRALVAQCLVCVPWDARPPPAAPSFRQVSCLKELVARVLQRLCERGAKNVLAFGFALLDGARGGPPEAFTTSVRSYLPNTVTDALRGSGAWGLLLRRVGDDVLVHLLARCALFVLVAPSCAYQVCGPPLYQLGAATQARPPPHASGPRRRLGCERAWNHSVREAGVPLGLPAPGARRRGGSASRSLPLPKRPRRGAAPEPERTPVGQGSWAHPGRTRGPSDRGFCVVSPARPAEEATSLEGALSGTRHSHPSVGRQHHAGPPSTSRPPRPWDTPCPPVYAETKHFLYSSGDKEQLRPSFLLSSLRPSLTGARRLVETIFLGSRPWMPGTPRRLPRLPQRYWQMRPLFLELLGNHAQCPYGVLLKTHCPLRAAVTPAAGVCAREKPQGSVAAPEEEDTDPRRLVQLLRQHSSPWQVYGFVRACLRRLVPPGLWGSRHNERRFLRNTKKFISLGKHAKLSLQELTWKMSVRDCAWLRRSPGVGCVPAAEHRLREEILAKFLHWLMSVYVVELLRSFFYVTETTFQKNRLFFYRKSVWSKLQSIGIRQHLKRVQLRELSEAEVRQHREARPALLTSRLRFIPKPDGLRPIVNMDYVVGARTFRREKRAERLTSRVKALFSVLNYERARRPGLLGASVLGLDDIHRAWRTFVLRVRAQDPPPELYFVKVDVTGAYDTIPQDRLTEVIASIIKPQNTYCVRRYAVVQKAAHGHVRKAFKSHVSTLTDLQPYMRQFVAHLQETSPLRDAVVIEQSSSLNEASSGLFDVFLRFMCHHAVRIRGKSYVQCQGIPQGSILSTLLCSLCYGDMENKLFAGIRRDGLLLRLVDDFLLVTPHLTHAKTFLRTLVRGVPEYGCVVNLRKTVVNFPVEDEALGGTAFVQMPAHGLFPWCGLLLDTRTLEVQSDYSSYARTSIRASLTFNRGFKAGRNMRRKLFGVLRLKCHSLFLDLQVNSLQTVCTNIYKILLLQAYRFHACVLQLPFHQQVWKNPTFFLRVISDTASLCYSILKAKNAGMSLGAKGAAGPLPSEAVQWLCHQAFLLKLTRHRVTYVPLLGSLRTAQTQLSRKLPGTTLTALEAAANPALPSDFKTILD
For data set [9], the system named is Leishmania donovani. In words: Antileishmanial activity against Leishmania donovani promastigotes assessed as parasite growth inhibition incubated for 72 hrs by Alamar blue assay. The class given is functional, organism-based.
Data set [10] can be described thus: Cytotoxicity against African green monkey Vero cells assessed as cell growth inhibition incubated for 48 hrs by neutral red dye based assay. The class given is toxicity. To be noted: African green monkey (Chlorocebus sabaeus).
The test system of data set [11] is Plasmodium falciparum. The data set can be described thus: Antimalarial activity against chloroquine sensitive Plasmodium falciparum D6 assessed as parasite growth inhibition incubated for 72 hrs by Malstat reagent assay. The class given is functional, organism-based. To be noted: D6, 72 h.
For data set [12], the system named is Plasmodium falciparum. The data set can be described thus: Antimalarial activity against chloroquine resistant Plasmodium falciparum W2 assessed as parasite growth inhibition incubated for 72 hrs by Malstat reagent assay. The class given is functional, organism-based. The following applies: W2, 72 h.
The subject of data set [13] is K562. In words: Cytotoxicity against human K562 cells assessed as cell growth inhibition. The data set is classed as functional, cell-based.
Data set [14] has as its system SGC-7901. In words: Cytotoxicity against human SGC-7901 cells assessed as cell growth inhibition. The data set is classed as functional, cell-based.
Data set [15] relates to Bel-7402. The data set can be described thus: Cytotoxicity against human Bel-7402 cells assessed as cell growth inhibition. The class given is functional, cell-based.

In brackets after ≈: the same amount, converted by molar mass.

The IC50 is the concentration that inhibits the measured activity by half.

As to `O=C1CC[C@]2(O)c3c(ccc(O)c31)-c1ccc(O)c3c1[C@H]2[C@H]1O[C@H]1C3=O`, the IC50 in data set [1] amounted to 6.2 µM; in data set [3] it was 1.9 µM; in data set [4] it was 1.9 µM; in data set [5], 1.9 µM; in [6] it was 1.9 µM; in [7] it was 14.3 µM. Besides, in data set [2], the GI50 was 0.5 µg/mL (≈ 1.43 µM).

In the case of `O=C1C[C@H](O)[C@@H]2c3c(ccc(O)c31)-c1ccc(O)c3c1[C@@]2(O)C=CC3=O`, the IC50 turned out to be 1.9 µM in data set [3]; 1.9 µM in data set [4]; 1.9 µM in data set [5]; 1.9 µM in data set [6]; 30 µM in data set [8].

For the compound `O=C1C[C@@H](O)[C@]2(O)c3c(ccc(O)c31)-c1ccc(O)c3c1[C@@H]2[C@H]1O[C@@H]1[C@@H]3O`, in data set [9], the IC50 amounted to 2.5 µg/mL (≈ 6.79 µM).

`O=C1C[C@H](O)[C@H]2c3c(ccc(O)c31)-c1ccc(O)c3c1[C@@]2(O)[C@H](O)CC3=O`: the IC50 at 48 h in data set [10] stood at 9.8 µM. For the same compound, the values for the IC50 in data set [9], in data set [11] and in data set [12] were 4.4 µg/mL (≈ 11.9 µM), 4.2 µg/mL (≈ 11.4 µM) and 3.6 µg/mL (≈ 9.77 µM), respectively.

`O=C1CC[C@]2(O)c3c(ccc(O)c31)-c1ccc(O)c3c1[C@H]2[C@H]1O[C@H]1[C@@H]3O`: in data set [9], the IC50 came to 3.1 µg/mL (≈ 8.8 µM).

With `O=C1C[C@H](O)[C@@H]2c3c(ccc(O)c31)-c1ccc(O)c3c1[C@@]2(O)[C@H](O)CC3=O`, in [13], the IC50 was determined as 53.5 µM.

For the compound `CO[C@H]1CC(=O)c2c(O)ccc3c2[C@@]1(O)[C@@H]1c2c-3ccc(O)c2[C@@H](O)[C@@H]2O[C@@H]21`, the IC50 at 48 h in data set [10] was 12.5 µM. The results for the IC50 in [9], in data set [11] and in [12] were 1.4 µg/mL (≈ 3.66 µM), 3.2 µg/mL (≈ 8.37 µM) and 2.5 µg/mL (≈ 6.54 µM), respectively.

Take `O=C1CCc2c3c4c(cc(O)cc4c4ccc(O)c1c24)[C@H](O)CC3`: the results for the IC50 in data set [13], in [14] and in data set [15] were 83.1 µM, 27.5 µM and 40.9 µM, respectively.

Regarding `O=C1C[C@H](O)[C@@H]2c3c(ccc(O)c31)-c1ccc(O)c3c1[C@@]2(O)CCC3=O` [ALTERTOXIN I], the GI50 in data set [2] is 20 µg/mL (≈ 56.8 µM).

The values above are taken from ChEMBL document CHEMBL5126634, “Naturally Occurring Partially Reduced Perylenequinones from Fungi” (J Nat Prod, 2022).
